The numbers were not newly measured in patent US11819485B2, “Levodopa fractionated dose composition and use” (AVION PHARMACEUTICALS, LLC, priority 2018, dated 2023), which cites them from elsewhere.

Assay in series [1]: not given
The source holds these as a separate data set.

For series [2] the following is noted: steady intravenous dose, plasma LD kept within efficacy-with-no-MRCs range, as long as the infusion lasted.

SMILES strings stand for the structures. Where two headings read alike, the source gives them in different places.

Turning to `N[C@@H](Cc1ccc(O)c(O)c1)C(=O)O` [LD, Levodopa], the solubility in water entry is listed as “poorly soluble in water”. Moreover, the “duration of effect of each LD dose” value in series [1] (beginning of the disease, orally administered LD) is 6 h. For the same compound, the “duration of effect of each dose” value in series [1] (early stages of the disease) is reported as “approximately 6 hours”. The “duration of effect of each dose” value in series [1] (ultimately, as PD progresses) is “about 1.5 hours”. Also, the “antiparkinsonian effect and dyskinesias during infusion” value in series [2] is “full antiparkinsonian effect (no wearing off) without any dyskinesias”.
